Results published in patent US20240358692A1, “TREATMENT OF SCLERODERMA” (Aisa Pharma, Inc., priority 2023, published 2024).
Entries after “also recorded” stand apart in the source; their conditions may differ. Like-named read-outs stand apart in the source and are kept apart here.

Legend:
participants with SSc-RP [1] = format: in vivo
Text: Treatment-emergent AEs (TEAEs) are defined as AEs that occur or worsen after the dose of study drug. If the timing of the start of an AE could not be determined unambiguously from the start or end dates provided, it will be assumed to be a TEAE. An AE is considered related if the relationship to either of the study drug has been indicated as possibly or probably or definite related by the investigator. An AE leading to study withdrawal is defined as an AE that cause a subject early terminated from the study. AEs will be identified as emerging in the following parts: • TEAEs for Part A will be those that started during Part A (i.e., from the first dose in Part A to end of follow up of Part A) • TEAEs for Part B will be those that started during Part B (i.e., from the first dose in Part B to end of follow-up of Part B).
In this study, AEs and SAEs were reported for all participants from the time of randomization until the completion of the Follow-up/EOS visit. Adverse events that were ongoing at the EOS visit were marked as Not Recovered/Not resolved on the AE eCRF page (see Section 9.4.4). The Investigator did full AE review during in-clinic visit. All spontaneously volunteered and enquired for, as well as observed AEs, were recorded in the participant's medical records and the eCRF.
Severity of AEs were graded by the Investigator as one of: • Mild (Grade 1): A type of AE that is usually transient and may require only minimal treatment or therapeutic intervention.

participants with SSc-RP [2] = assay: SHAQ - Visual Analog Scale - Intestinal Problems; format: in vivo, human; design: Visual Analog Scale-Intestinal Problems, In Clinic Visit (Day 12), Mean / Visual Analog Scale-Intestinal Problems, In Clinic Visit (Day 12), Median / Visual Analog Scale-Intestinal Problems, Change from Baseline, Mean / Visual Analog Scale-Intestinal Problems, Change from Baseline, Median / SHAQ Visual Analogue Scale - Intestinal Problems, In-Clinic Visit (Day 12), Median: scale not given here
Text: The standard, validated, patient reported outcome measures tool for SSc patients, the Scleroderma Health Assessment Questionnaire (SHAQ), will be used to assess the participant qualify of life. Details are attached in the Appendix. The participant quality of life will be scored, and a disability index calculated for each questionnaire completed by the patient at Screening and each in-clinic visit. The absolute change in participant quality of life from baseline to the end of each dosing period will be calculated similar to frequency data as before.
The standard, validated, patient reported outcome measures tool for SSc patients, the SHAQ, was collected at the time points specified in the study schedules (FIG. 2 and FIGS. 4A and 4B) to assess the participant's quality of life. The SHAQ included a Raynaud's VAS that will also be reported separately.

[3] = Any Cilnidipine (N = 17), Day 12, PP Population, Part A
[4] = Cilnidipine 10 mg, SSc patients, PP, Part A
[5] = Cilnidipine 20 mg, SSc patients, PP, Part A
[6] = Modified ITT Population-Part A, Day 12, dose cilnidipine 20 mg, tadalafil 5 mg, alone or combined as labelled

**Q.** How did the tolerability (participants with SSc-RP [1]; 10 mg and 20 mg, alone or in combination with tadalafil) turn out when `COCCOC(=O)C1=C(C)NC(C)=C(C(=O)OC/C=C/c2ccccc2)C1c1cccc([N+](=O)[O-])c1` (stereo not drawn) [Cilnidipine] was run?
**A.** Its tolerability is “well tolerated”.

**Q.** What about the “Safety: number of AE” value (participants with SSc-RP [1]; Cilnidipine 20 mg, HA, mild, n = 8) of the same compound?
**A.** Its value is 1AE (HA−mild; 1.

**Q.** And the “Safety: withdrawals” value (participants with SSc-RP [1]; Cilnidipine 20 mg, n = 8)?
**A.** Its value is 1AE (HA−mild; 1 withdrawal.

**Q.** What about the “Safety: withdrawals” value (participants with SSc-RP [1]; Pooled Cilnidipine, n = 9) of the same compound?
**A.** The value was “T); no withdrawals”.

**Q.** What about the “treatment discontinuations due to intolerance” value (participants with SSc-RP [1]; all patients who received any dose of cilnidipine (n=17)) of the same compound?
**A.** The value was “no treatment discontinuations due to intolerance were reported”.

**Q.** What about the “incidence of Adverse Events / overall adverse event rate” value (participants with SSc-RP [1]; all patients who received any dose of cilnidipine (n=17), Part A) of the same compound?
**A.** Its value is 17%.

**Q.** What about the Adverse effects (participants with SSc-RP [1]; any Profervia dose) of the same compound?
**A.** Its Adverse effects is 17% Adverse effects in.

**Q.** What about the “severity grade of adverse events” value (participants with SSc-RP [1]; patients treated with cilnidipine, Part A) of the same compound?
**A.** The value was “only Grade 1 Adverse Events (AEs) were reported; also recorded: only mild (Grade 1) adverse events occurred”.

**Q.** What about the “Safety: grade of Adverse Events (AEs)” value (participants with SSc-RP [1]; summary of data) of the same compound?
**A.** Its value is “Grade 1 Adverse”.

**Q.** What about the “Safety: treatment D/Cs (discontinuations)” value (participants with SSc-RP [1]; summary of data) of the same compound?
**A.** Its value is “No treatment D/Cs”.

**Q.** And the “SHAQ Visual Analogue Scale - Intestinal Problems, Change from Baseline, Mean (SD)” value (participants with SSc-RP [2]; [3])?
**A.** Its value is −0.556 (1.7427).

**Q.** What about the “SHAQ Visual Analogue Scale - Intestinal Problems, Change from Baseline, Median” value (participants with SSc-RP [2]; [3]) of the same compound?
**A.** Its value is −0.100.

**Q.** What about the “SHAQ Visual Analogue Scale - Intestinal Problems, In-Clinic Visit (Day 12), Mean (SD)” value (participants with SSc-RP [2]; [3]) of the same compound?
**A.** The value was 1.121 (1.4119).

**Q.** What about the “SHAQ Visual Analogue Scale - Intestinal Problems, In-Clinic Visit (Day 12), Median” value (participants with SSc-RP [2]; [3]) of the same compound?
**A.** The value was 0.600.

**Q.** And the “SHAQ Visual Analogue Scale - Intestinal Problems, Percent Change from Baseline, Mean (SD)” value (participants with SSc-RP [2]; [3])?
**A.** The value was −18.65 (93.767) %.

**Q.** What about the “SHAQ Visual Analogue Scale - Intestinal Problems, Percent Change from Baseline, Median” value (participants with SSc-RP [2]; [3]) of the same compound?
**A.** The value was −54.13%.

**Q.** And the “SHAQ VAS Intestinal Problems, Change from Baseline, Max” value (participants with SSc-RP [2]; [4])?
**A.** The value was 0.00.

**Q.** What about the “SHAQ VAS Intestinal Problems, Change from Baseline, Median” value (participants with SSc-RP [2]; [4]) of the same compound?
**A.** The value was −1.550.

**Q.** What about the “SHAQ VAS Intestinal Problems, Change from Baseline, Min” value (participants with SSc-RP [2]; [4]) of the same compound?
**A.** The value was −4.40,.

**Q.** What about the “SHAQ VAS Intestinal Problems, Change from Baseline, Q1” value (participants with SSc-RP [2]; [4]) of the same compound?
**A.** The value was −3.700,.

**Q.** And the “SHAQ VAS Intestinal Problems, Change from Baseline, Q3” value (participants with SSc-RP [2]; [4])?
**A.** Its value is −0.050.

**Q.** What about the “SHAQ VAS Intestinal Problems, Day 12, Max” value (participants with SSc-RP [2]; [4]) of the same compound?
**A.** Its value is 3.80.

**Q.** And the “SHAQ VAS Intestinal Problems, Day 12, Mean” value (participants with SSc-RP [2]; [4])?
**A.** The value was 1.100.

**Q.** What about the “SHAQ VAS Intestinal Problems, Day 12, Median” value (participants with SSc-RP [2]; [4]) of the same compound?
**A.** The value was 0.300.

**Q.** And the “SHAQ VAS Intestinal Problems, Day 12, Min” value (participants with SSc-RP [2]; [4])?
**A.** Its value is 0.00,.

**Q.** And the “SHAQ VAS Intestinal Problems, Day 12, Q1” value (participants with SSc-RP [2]; [4])?
**A.** Its value is 0.000,.

**Q.** And the “SHAQ VAS Intestinal Problems, Day 12, Q3” value (participants with SSc-RP [2]; [4])?
**A.** The value was 2.200.

**Q.** What about the “SHAQ VAS Intestinal Problems, Percent Change from Baseline, Max” value (participants with SSc-RP [2]; [4]) of the same compound?
**A.** Its value is −44.1.

**Q.** What about the “SHAQ VAS Intestinal Problems, Percent Change from Baseline, Median” value (participants with SSc-RP [2]; [4]) of the same compound?
**A.** The value was −88.00.

**Q.** What about the “SHAQ VAS Intestinal Problems, Percent Change from Baseline, Min” value (participants with SSc-RP [2]; [4]) of the same compound?
**A.** The value was −100.0,.

**Q.** And the “SHAQ VAS Intestinal Problems, Percent Change from Baseline, Q1” value (participants with SSc-RP [2]; [4])?
**A.** The value was −100.00,.

**Q.** And the “SHAQ VAS Intestinal Problems, Percent Change from Baseline, Q3” value (participants with SSc-RP [2]; [4])?
**A.** Its value is −44.12.

**Q.** And the “SHAQ VAS Intestinal Problems, Change from Baseline, Max” value (participants with SSc-RP [2]; [5])?
**A.** The value was 0.60.

**Q.** What about the “SHAQ VAS Intestinal Problems, Change from Baseline, Mean” value (participants with SSc-RP [2]; [5]) of the same compound?
**A.** The value was 0.150.

**Q.** What about the “SHAQ VAS Intestinal Problems, Change from Baseline, Median” value (participants with SSc-RP [2]; [5]) of the same compound?
**A.** The value was 0.150.

**Q.** What about the “SHAQ VAS Intestinal Problems, Change from Baseline, Min” value (participants with SSc-RP [2]; [5]) of the same compound?
**A.** The value was −0.30,.

**Q.** And the “SHAQ VAS Intestinal Problems, Change from Baseline, Q1” value (participants with SSc-RP [2]; [5])?
**A.** Its value is −0.150,.

**Q.** What about the “SHAQ VAS Intestinal Problems, Change from Baseline, Q3” value (participants with SSc-RP [2]; [5]) of the same compound?
**A.** Its value is 0.450.

**Q.** And the “SHAQ VAS Intestinal Problems, Day 12, Max” value (participants with SSc-RP [2]; [5])?
**A.** Its value is 2.10.

**Q.** And the “SHAQ VAS Intestinal Problems, Day 12, Mean” value (participants with SSc-RP [2]; [5])?
**A.** The value was 0.850.

**Q.** And the “SHAQ VAS Intestinal Problems, Day 12, Median” value (participants with SSc-RP [2]; [5])?
**A.** The value was 0.650.

**Q.** And the “SHAQ VAS Intestinal Problems, Day 12, Min” value (participants with SSc-RP [2]; [5])?
**A.** Its value is 0.00,.

**Q.** What about the “SHAQ VAS Intestinal Problems, Day 12, Q1” value (participants with SSc-RP [2]; [5]) of the same compound?
**A.** The value was 0.000,.

**Q.** And the “SHAQ VAS Intestinal Problems, Day 12, Q3” value (participants with SSc-RP [2]; [5])?
**A.** Its value is 1.700.

**Q.** And the “SHAQ VAS Intestinal Problems, Percent Change from Baseline, Max” value (participants with SSc-RP [2]; [5])?
**A.** The value was 40.0.

**Q.** And the “SHAQ VAS Intestinal Problems, Percent Change from Baseline, Mean” value (participants with SSc-RP [2]; [5])?
**A.** Its value is −10.00.

**Q.** What about the “SHAQ VAS Intestinal Problems, Percent Change from Baseline, Min” value (participants with SSc-RP [2]; [5]) of the same compound?
**A.** Its value is −100.0,.

**Q.** And the “SHAQ VAS Intestinal Problems, Percent Change from Baseline, Q1” value (participants with SSc-RP [2]; [5])?
**A.** The value was −100.00,.

**Q.** And the “SHAQ VAS Intestinal Problems, Percent Change from Baseline, Q3” value (participants with SSc-RP [2]; [5])?
**A.** The value was 40.00.

**Q.** What about the “SHAQ Intestinal Difficulty, mean % change” value (participants with SSc-RP [2]; Cilnidipine, pooled, n = 7 (in column Cilnidipine 20 mg), minus = improvement, Table A*) of the same compound?
**A.** The value was −45% (pooled,.

**Q.** And the “Visual Analog Scale-Intestinal Problems, Percent Change from Baseline, Median” value (participants with SSc-RP [2]; Modified ITT Population-Part A, Day 12, dose cilnidipine 10 mg, tadalafil 5 mg, alone or combined as labelled)?
**A.** Its value is −88.00%.

**Q.** What about the “Visual Analog Scale-Intestinal Problems, Change from Baseline, Mean” value (participants with SSc-RP [2]; [6]) of the same compound?
**A.** Its value is 0.300.

**Q.** What about the “Visual Analog Scale-Intestinal Problems, Change from Baseline, Median” value (participants with SSc-RP [2]; [6]) of the same compound?
**A.** Its value is 0.300.

**Q.** What about the “Visual Analog Scale-Intestinal Problems, Percent Change from Baseline, Mean” value (participants with SSc-RP [2]; [6]) of the same compound?
**A.** Its value is 35.00%.
